Assay [1] deals with c-Myc expression in 786-O cells. Kind of assay: Western blot of protein expression in 786-O Renal Cancer Cell line (FIG. 7A). The following applies: different dose levels (1 μM and 10 μM), in words. The assay is classed as cell-based. The text has this:
The Vinculin, c-Myc, Survivin, ornithine decarboxylase (ODC), Cyclin D and pS6 mRNA are cap-dependent mRNAs that are considered difficult to translate. The blots for each mRNA shown were translated via a cap-independent manner with mTOR inhibition (Akt has been inactivated).

The next assay relates to HIV-1. Kind of assay: HIV-1 CPE protection assay in MT-2 cells. The class given is cell-based. The procedure: Antiviral activity against HIV-1 is determined in a human cell line. […] The activity against HIV may also be tested in human peripheral blood mononuclear cells in cell culture.

Usually IC50 stands for the concentration needed to halve the response being measured. Broadly, the EC50 is the concentration needed to bring the measured effect to its halfway point.

With `COc1ccc([C@H]2c3[nH]c4ccc(Cl)cc4c3CCN2C(=O)Oc2ccc(Cl)cc2)cc1` (racemic) [Compound #10], the “Suppression of c-Myc expression (FIG. 7A)” value in assay [1] is listed as “not completely effective in suppressing c-Myc expression”. The IC50 in the assay on HIV-1 (Human immunodeficiency virus 1, MT2) was found to be 22 nM. In addition, the EC50 in the assay on HIV-1 (Human immunodeficiency virus 1, MT2, 72 h, human cell line, 3 days post-infection, normalized to cell number after treatment in the absence of infection, read-out: EC50, prevention of cytopathic effect) came to 22 nM.

Source of the values: US11613538B2, “Method of inhibiting or reducing a viral infection” (PTC Therapeutics, Inc., priority 2009, dated 2023).
